Experimental data published in patent US7994140B2, “Classes of compounds that interact with GPCRs” (Alchemia Limited, priority 2002, dated 2011).

Target: T1, MC4 (Homo sapiens, UniProt P32245)
T1 construct: purchased Perkin Elmer BioSignal; host or cells: HEK 293
Assay: GPCR radioligand binding (RLB) assay, melanocortin MC4, [125I]NDP-αMSH
Settings: 10 micromolar compound; recombinant human receptor membranes (HEK 293)
Summary of the method: (§1)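 Competition binding against radioligand ([125I]NDP-αMSH for MC4, [125I]SST-14 for SST5) on membranes of HEK 293 cells carrying the human receptor; buffer and incubation time optimized per receptor. Filtration through 0.5% PEI-treated glass fiber, washing, then scintillation counting.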

T1 sequence (P32245 whole entry): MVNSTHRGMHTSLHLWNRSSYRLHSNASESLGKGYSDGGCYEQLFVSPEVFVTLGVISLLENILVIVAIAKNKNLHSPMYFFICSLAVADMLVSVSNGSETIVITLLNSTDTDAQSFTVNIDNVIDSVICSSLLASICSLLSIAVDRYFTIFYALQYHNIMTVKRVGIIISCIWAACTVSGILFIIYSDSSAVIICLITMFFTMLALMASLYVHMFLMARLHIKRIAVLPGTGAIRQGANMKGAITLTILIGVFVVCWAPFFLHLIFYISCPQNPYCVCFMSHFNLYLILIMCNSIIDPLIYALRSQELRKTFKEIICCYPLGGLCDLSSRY

| SMILES | MC4 inhibition at 10 micromolar |
| --- | --- |
| CSC1OC(COCc2ccc(Cl)cc2)C(O)C(OCc2ccc(-c3ccccc3)cc2)C1NC(=O)CN (centres unmarked) [Compound 173] | + (Indicates inhibition greater than . . . 50%) |
| COC1C(O)C(COCc2ccc3ccccc3c2)OC(OCc2ccc(Cl)cc2)C1NC(=O)CNC(=N)N (centres unmarked) [Compound 87] | + (Indicates inhibition greater than . . . 50%) |
| CSC1OC(COCc2ccc(Cl)cc2)C(O)C(OCc2ccccc2)C1NC(=O)CCCN (centres unmarked) [Compound 129] | + (Indicates inhibition greater than . . . 50%) |

Same assay, conditions: 10 micromolar; Example Library 4

| SMILES | MC4 inhibition at 10 micromolar |
| --- | --- |
| COCC1OC(OCCc2ccccc2)C(NC(=O)CCN)C(OCc2ccc(Cl)cc2)C1O (centres unmarked) [Compound 268] | + (Indicates inhibition greater than . . . 50%) |
| COCC1OC(OCc2ccc(Cl)cc2)C(NC(=O)CCN)C(OCc2ccc(-c3ccccc3)cc2)C1O (centres unmarked) [Compound 250] | + (Indicates inhibition greater than . . . 50%) |
| COCC1OC(OCc2ccc3ccccc3c2)C(NC(=O)CN)C(OCc2ccc(-c3ccccc3)cc2)C1O (centres unmarked) [Compound 298] | + (Indicates inhibition greater than . . . 50%) |
| COCC1OC(OCc2ccc3ccccc3c2)C(NC(=O)CCNC(=N)N)C(OCc2ccc3ccccc3c2)C1O (centres unmarked) [Compound 305] | + (Indicates inhibition greater than . . . 50%) |
| COCC1OC(OCCc2ccccc2)C(NC(=O)CCCNC(=N)N)C(OCc2ccc(Cl)cc2)C1O (centres unmarked) [Compound 271] | + (Indicates inhibition greater than . . . 50%) |
| COCC1OC(OCc2ccc(Cl)cc2)C(NC(=O)CNC(=N)N)C(OCc2ccccc2)C1O (centres unmarked) [Compound 237] | + (Indicates inhibition greater than . . . 50%) |
| COCC1OC(OCc2ccc(Cl)cc2)C(NC(=O)CCNC(=N)N)C(OCc2ccc(-c3ccccc3)cc2)C1O (centres unmarked) [Compound 251] | + (Indicates inhibition greater than . . . 50%) |
| COCC1OC(OCc2ccccc2)C(NC(=O)CCCN)C(OCc2ccc3ccccc3c2)C1O (centres unmarked) [Compound 235] | + (Indicates inhibition greater than . . . 50%) |
| COCC1OC(OCc2ccc3ccccc3c2)C(NC(=O)CCCNC(=N)N)C(OCc2ccc(-c3ccccc3)cc2)C1O (centres unmarked) [Compound 301] | + (Indicates inhibition greater than . . . 50%) |
| COCC1OC(OCc2ccccc2)C(NC(=O)CCCN)C(OCc2ccc(Cl)cc2)C1O (centres unmarked) [Compound 223] | + (Indicates inhibition greater than . . . 50%) |
| COCC1OC(OCc2ccc3ccccc3c2)C(NC(=O)CCCNC(=N)N)C(OCc2ccc3ccccc3c2)C1O (centres unmarked) [Compound 307] | + (Indicates inhibition greater than . . . 50%) |
| COCC1OC(OCc2ccc(Cl)cc2)C(NC(=O)CCN)C(OCc2ccc(Cl)cc2)C1O (centres unmarked) [Compound 244] | + (Indicates inhibition greater than . . . 50%) |
| COCC1OC(OCc2ccc(Cl)cc2)C(NC(=O)CCNC(=N)N)C(OCc2ccc3ccccc3c2)C1O (centres unmarked) [Compound 257] | + (Indicates inhibition greater than . . . 50%) |
| COCC1OC(OCc2ccc(Cl)cc2)C(NC(=O)CCCN)C(OCc2ccc(Cl)cc2)C1O (centres unmarked) [Compound 246] | + (Indicates inhibition greater than . . . 50%) |
| COCC1OC(OCc2ccc(Cl)cc2)C(NC(=O)CN)C(OCc2ccc(-c3ccccc3)cc2)C1O (centres unmarked) [Compound 248] | + (Indicates inhibition greater than . . . 50%) |
| COCC1OC(OCc2ccc(Cl)cc2)C(NC(=O)CCCN)C(OCc2ccc3ccccc3c2)C1O (centres unmarked) [Compound 258] | + (Indicates inhibition greater than . . . 50%) |

Target: T2, SST5 (Homo sapiens, UniProt P35346)
T2 construct: purchased Perkin Elmer BioSignal; host or cells: HEK 293
Assay: GPCR radioligand binding (RLB) assay, somatostatin SST5, [125I]SST-14
Settings: 10 micromolar compound; recombinant human receptor membranes (HEK 293)
Summary of the method: as §1

T2 sequence (P35346 whole entry): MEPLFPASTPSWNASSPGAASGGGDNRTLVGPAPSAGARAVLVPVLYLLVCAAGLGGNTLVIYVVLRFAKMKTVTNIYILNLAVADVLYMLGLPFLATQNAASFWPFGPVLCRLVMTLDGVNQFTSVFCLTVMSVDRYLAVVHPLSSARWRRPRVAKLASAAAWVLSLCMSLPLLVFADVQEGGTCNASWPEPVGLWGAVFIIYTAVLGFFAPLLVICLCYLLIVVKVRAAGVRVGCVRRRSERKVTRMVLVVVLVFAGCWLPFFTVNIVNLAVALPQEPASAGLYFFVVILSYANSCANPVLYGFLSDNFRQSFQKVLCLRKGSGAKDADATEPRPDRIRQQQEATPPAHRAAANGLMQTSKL

| SMILES | SST5 inhibition at 10 micromolar |
| --- | --- |
| CSC1OC(COCc2ccc(Cl)cc2)C(O)C(OCc2ccc(-c3ccccc3)cc2)C1NC(=O)CN (centres unmarked) [Compound 173] | + (Indicates inhibition greater than . . . 50%) |
| COC1C(O)C(COCc2ccc3ccccc3c2)OC(OCc2ccc(Cl)cc2)C1NC(=O)CNC(=N)N (centres unmarked) [Compound 87] | + (Indicates inhibition greater than . . . 50%) |
| CSC1OC(COCc2ccc(Cl)cc2)C(O)C(OCc2ccccc2)C1NC(=O)CCCN (centres unmarked) [Compound 129] | + (Indicates inhibition greater than . . . 50%) |

Same assay, conditions: 10 micromolar; Example Library 4

| SMILES | SSTS inhibition at 10 micromolar |
| --- | --- |
| COCC1OC(OCCc2ccccc2)C(NC(=O)CCN)C(OCc2ccc(Cl)cc2)C1O (centres unmarked) [Compound 268] | + (Indicates inhibition greater than . . . 50%) |
| COCC1OC(OCc2ccc(Cl)cc2)C(NC(=O)CCN)C(OCc2ccc(-c3ccccc3)cc2)C1O (centres unmarked) [Compound 250] | + (Indicates inhibition greater than . . . 50%) |
| COCC1OC(OCc2ccc3ccccc3c2)C(NC(=O)CN)C(OCc2ccc(-c3ccccc3)cc2)C1O (centres unmarked) [Compound 298] | + (Indicates inhibition greater than . . . 50%) |
| COCC1OC(OCc2ccc3ccccc3c2)C(NC(=O)CCNC(=N)N)C(OCc2ccc3ccccc3c2)C1O (centres unmarked) [Compound 305] | + (Indicates inhibition greater than . . . 50%) |
| COCC1OC(OCCc2ccccc2)C(NC(=O)CCCNC(=N)N)C(OCc2ccc(Cl)cc2)C1O (centres unmarked) [Compound 271] | + (Indicates inhibition greater than . . . 50%) |
| COCC1OC(OCc2ccc(Cl)cc2)C(NC(=O)CNC(=N)N)C(OCc2ccccc2)C1O (centres unmarked) [Compound 237] | + (Indicates inhibition greater than . . . 50%) |
| COCC1OC(OCc2ccc(Cl)cc2)C(NC(=O)CCNC(=N)N)C(OCc2ccc(-c3ccccc3)cc2)C1O (centres unmarked) [Compound 251] | + (Indicates inhibition greater than . . . 50%) |
| COCC1OC(OCc2ccccc2)C(NC(=O)CCCN)C(OCc2ccc3ccccc3c2)C1O (centres unmarked) [Compound 235] | + (Indicates inhibition greater than . . . 50%) |
| COCC1OC(OCc2ccc3ccccc3c2)C(NC(=O)CCCNC(=N)N)C(OCc2ccc(-c3ccccc3)cc2)C1O (centres unmarked) [Compound 301] | + (Indicates inhibition greater than . . . 50%) |
| COCC1OC(OCc2ccccc2)C(NC(=O)CCCN)C(OCc2ccc(Cl)cc2)C1O (centres unmarked) [Compound 223] | + (Indicates inhibition greater than . . . 50%) |
| COCC1OC(OCc2ccc3ccccc3c2)C(NC(=O)CCCNC(=N)N)C(OCc2ccc3ccccc3c2)C1O (centres unmarked) [Compound 307] | + (Indicates inhibition greater than . . . 50%) |
| COCC1OC(OCc2ccc(Cl)cc2)C(NC(=O)CCN)C(OCc2ccc(Cl)cc2)C1O (centres unmarked) [Compound 244] | + (Indicates inhibition greater than . . . 50%) |
| COCC1OC(OCc2ccc(Cl)cc2)C(NC(=O)CCNC(=N)N)C(OCc2ccc3ccccc3c2)C1O (centres unmarked) [Compound 257] | + (Indicates inhibition greater than . . . 50%) |
| COCC1OC(OCc2ccc(Cl)cc2)C(NC(=O)CCCN)C(OCc2ccc(Cl)cc2)C1O (centres unmarked) [Compound 246] | + (Indicates inhibition greater than . . . 50%) |
| COCC1OC(OCc2ccc(Cl)cc2)C(NC(=O)CN)C(OCc2ccc(-c3ccccc3)cc2)C1O (centres unmarked) [Compound 248] | + (Indicates inhibition greater than . . . 50%) |
| COCC1OC(OCc2ccc(Cl)cc2)C(NC(=O)CCCN)C(OCc2ccc3ccccc3c2)C1O (centres unmarked) [Compound 258] | + (Indicates inhibition greater than . . . 50%) |
